In patent US10975123B2, “Mutant Akt-specific capture agents, compositions, and methods of using and making” (California Institute of Technology, priority 2014, dated 2021):
Where a SMILES comes first, the peptide text is derived from it. Bridges are numbered along the chain shown (N, C = ends). Roman numbers before positions name the chains, in order. Primed or numbered codes have the meaning given here. Triazole bridges read from a SMILES are 1,4-linked. Where no end group is shown, it is not given here. [ ]: non-standard residue; d: D form. The star is where a group is joined. Biotin = O=C1N[C@H]2[C@H](CS[C@H]2CCCCC(=O)*)N1; Lys(N3) = [N-]=[N+]=NCCCC[C@H](N)C(=O)O; PEG6 = NCCOCCOCCOCCOCCOCCOCCC(=O)O; dPra = C#CC[C@@H](N)C(=O)O; PEG5′ = PEG5 linker

Columns and labels:
[1] = biological target: T1, E17K GST-PH Domain (E17K Akt1) (Homo sapiens, UniProt P31749, E17K); assay: Full curve ELISA, immobilized ligand, E17K protein; format: binding
T1 construct: The first 124 N-terminal amino acids from full length Akt1 were used as the PH Domain DNA; GST (N); thrombin cleavage site (C); 6His (C); made in house; host or cells: E. coli BL21-DE3-pLys
T1 sequence (P31749 1-124 E17K): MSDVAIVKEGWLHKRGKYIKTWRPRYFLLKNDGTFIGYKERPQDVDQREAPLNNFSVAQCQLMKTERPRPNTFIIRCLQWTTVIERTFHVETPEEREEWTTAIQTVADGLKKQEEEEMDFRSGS
Description: The full curve ELISAs were obtained using streptavidin coated ELISA plates (Pierce). The ligands—anchor, biligand, triligand and “eflya” scrambled anchor peptide blank—were laid down at a concentration of 1 μM for one hour. Two lanes of each ligand were used on the plate for both proteins—WT and E17K GST-PH Domain. The plates were blocked with 5% BSA for two hours. Dilutions of both WT and E17K GST-PH Domain proteins were made in 0.5% BSA in 1×TBS starting from 1 μM-0.5 nM by serially diluting 1:2 down a series of 8 samples. For each ligand, a no protein blank was also used. The proteins were incubated with the blocked plate for one hour, washed 3× with 1×TBST+0.5% BSA and tapped dry, then detected with a 1:10,000 dilution of an HRP conjugated anti-GST pAb. The plate was again washed 3× with 1×TBST and tapped dry. It was developed with a 1:1 solution of TMB substrate and development was stopped with 1M H2SO4 and read on a plate reader.

[2] = biological target: T2, E17K PH Domain binding to PIP3 (Homo sapiens, UniProt P31749, E17K); assay: PIP3 agarose inhibition assay, E17K; format: biochemical; conditions: in words; for inhibition of E17K PH Domain binding to PIP3-coated resin: ligand 2.38 μM (10x protein), protein 234 nM, western blot; for inhibition of E17K PH Domain binding to PIP3 resin, expanded assay: triligand 0.1-1000 eq relative to protein (234 nM)
T2 construct: 2 μg of either wildtype or mutant PH Domain-GFP protein (234 nM); made in house; host or cells: HEK-293-6E (used as cell lysate, not purified)
T2 sequence (P31749 5-108 E17K limits assumed): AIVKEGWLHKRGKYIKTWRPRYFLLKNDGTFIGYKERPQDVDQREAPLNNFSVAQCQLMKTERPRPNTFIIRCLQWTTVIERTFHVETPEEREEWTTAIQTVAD
Excerpt: (§1) The yleaf ligand, the biligand, and the triligand were all tested for their ability to block the E17K PHD binding with PIP3. For this test, PIP3-coated resin (Echelon Biosciences) was used to mimic the PHD interaction with the cell membrane, and could be used to bind the protein as in an immunoprecipitation assay^22. The presence of an effective blocking compound would reduce the ability of the resin to capture the protein, and would thus appear as a diminished signal in the corresponding western blot assay. A control lane containing no capture agent was used to show baseline binding of the protein to the PIP3 resin. […] In an expanded study, we compared the amount of E17K and WT PH domain binding relative to the amount of added triligand (FIG. 5e).
PIP3 Agarose beads (Echelon) were used to detect for the inhibition of PH Domain binding to its substrate, PIP3, upon incubation with the anchor candidate peptide ligands. To test the inhibition of each of the ligands, anchor biligand and triligand, 20 μL of resin slurry was added to each of four tubes and washed three times with 1×TBS. Protein, 2 μg (234 nM) of E17K mutant, was preincubated for one hour at room temperature with either DMSO (no protein blank), anchor, biligand or triligand at 2.38 μM (10× in relation to protein) in 200 μL of 1×TBS. For the control, mutant PH Domain was incubated with 1×TBS and 1 μL […] to mimic the ligand conditions. These protein samples were then added to PIP3 agarose in a Spin-X tube and incubated at room temperature for two hours. The resin was washed three times with 1×TBS with 0.25% IGEPAL CA-630, spun out to dry completely, then denatured with 50 μL 3×SDS gel loading buffer for 10 min at 95° C. The gel loading buffer was spun out of the resin and detected via western blot as per the Streptavidin-Agarose Pulldowns. Inhibition was indicated by a decrease in the amount of PH Domain that was pulled down by the resin.
(§2) Expanded inhibition blots with either WT of E17K mutant protein were performed in a similar fashion. Twelve tubes of 20 μL of PIP3 agarose were washed three times with 1×TBS. 2 μg of either wildtype or mutant PH Domain-GFP protein (234 nM) in 200 uL 1×TBS were preincubated for 30 minutes with differing concentrations of triligand: 0.1 eq (23.4 nM), 1 eq (234 nM), 10 eq (2.34 μM), 100 eq (23.4 μM), and 1000 eq (234 μM). The protein and triligand solutions were then incubated with the PIP3 resin for 2 hours at room temperature. The resins were washed, eluted, and blotted as per all PH Domain western blots.

[3] = test system: E17K Akt1 relative to E17K Akt2; assay: Point ELISA for triligand binding to Akt1 and Akt2 wildtype and E17K mutant; conditions: protein 100 nM, immobilized triligand, in words
Description: These assays were conducted to test the binding of the triligand to the off-target Akt2 wildtype and mutant proteins. For this assay, all samples were taken in triplicate for statistical purposes. Triligand peptide was first immobilized onto neutravdin ELISA plates (Pierce) for one hour. A scrambled anchor peptide, eflya, was used as the no-ligand blank, as the GST proteins has significant background binding to a blank neutravidin plate. The plates were then blocked with 5% BSA overnight. Protein was laid down at a concentration of 100 nM for samples wells and the blank, scrambled peptide wells. GST protein alone (Abcam) was also incubated with the triligand and scrambled peptide as a control. The proteins were incubated for one hour, then washed three times with 1×TBST. The protein was then detected with 1:10,000 anti-GST mouse mAb (Fisher, #MA4-004) for one hour, washed three times with 1×TBST and developed with a 1:1 mixture of TMB substrate for ten minutes. The samples were plotted by subtracting the blanks and averaging the sample wells. The highest signal was considered 100% binding, and the other samples were normalized accordingly.

[4] = biological target: T3, WT PH Domain binding to PIP3 (Homo sapiens, UniProt P31749); assay: PIP3 agarose inhibition assay, WT; format: biochemical; conditions: triligand 0.1-1000 eq relative to protein (234 nM), in words
T3 construct: 2 μg of either wildtype or mutant PH Domain-GFP protein (234 nM); made in house; host or cells: HEK-293-6E (used as cell lysate, not purified)
T3 sequence (P31749 5-108 limits assumed): as the sequence (P31749 5-108 E17K limits assumed) above, with K13E counted along it
Excerpt: as §1, §2

Compound	change in binding affinity for the E17K protein versus the preceding ligand (ELISA) ([1]; in words)	selectivity for E17K Akt1 relative to WT Akt1 (ELISA) ([1]; in words)	selectivity for E17K Akt1 relative to WT Akt1 (ELISA) ([1]; in words, listed as ivdae)	EC50 ([1]; ligand immobilized at 1 μM on streptavidin plate, Hill fit with common saturation and slope, read-out: EC50 for the E17K Akt1 from ELISA binding curves)	inhibition of E17K PH Domain binding to PIP3-coated resin [2]	inhibition of E17K PH Domain binding to PIP3 resin, expanded assay [2]	preference for E17K Akt1 relative to E17K Akt2 [3]	inhibition of WT PH Domain binding to PIP3 resin, expanded assay [4]
CC[C@@H](C)[C@@H](NC(=O)CCOCCOCCOCCOCCOCCOCCNC(=O)CCCC[C@@H]1SC[C@@H]2NC(=O)N[C@@H]21)C(=O)N[C@@H](C(=O)N[C@H](CC(=O)O)C(=O)N[C@H](C)C(=O)N[C@H](CCC(=O)O)C(=O)N[C@H](Cc1cn(CCCC[C@H](NC(C)=O)C(=O)N[C@H](Cc2ccc(O)cc2)C(=O)N[C@H](CC(C)C)C(=O)N[C@H](CCC(=O)O)C(=O)N[C@H](C)C(=O)N[C@H](Cc2ccccc2)C(=O)N[C@H](Cc2cn(CCCC[C@H](NC(C)=O)C(=O)N[C@H](Cc3ccc(O)cc3)C(=O)N[C@H](CCCCN)C(=O)N[C@H](CO)C(=O)N[C@H](Cc3ccc(O)cc3)C(N)=O)nn2)C(=O)O)nn1)C(=O)O)C(C)C [triligand] (I: Ac-[Lys(N3)][dY][dL][dE][dA][dF][dPra]-OH / II: {Biotin-PEG6}-[dI][dV][dD][dA][dE][dPra]-OH / III: Ac-[Lys(N3)][dY][dK][dS][dY]-NH2; triazole I:1-II:6, I:7-III:1; N-terminus assumed)	does not show an affinity increase for the E17K protein	largely recovered	maintains the selectivity over the WT protein	45 nM	exhibited the ability to block the PHD-PIP3 interaction, with the triligand being the most effective	significant selective inhibition of the E17K mutant relative to the WT	slight preference for E17K Akt1 relative to E17K Akt2	
triligand 8: form of the ivdae-yleaf-yksy triligand used in PIP3 inhibition assays (peptide 1 {Biotin-PEG5′}-[dI][dV][dD][dA][dE]; peptide 2 [dY][dL][dE][dA][dF]; peptide 3 [dY][dK][dS][dY]; not fully specified (N-terminus, C-terminus); also: triazole to a chain's N/C-terminus via Pra/Lys(N3), triazole to a chain's N/C-terminus via Pra/Lys(N3))					decreased binding of the protein	significant inhibition		little inhibition of this protein
